Patent publication EP2589390B1, “PHARMACEUTICAL COMPOSITION FOR TREATING CENTRAL AND PERIPHERAL NERVOUS SYSTEM DISEASES OF VASCULAR, TRAUMATIC, TOXIC, HYPOXIC AND […]” (Aktsionernoe Obschestvo "Pharm-Sintez", priority 2010, dated 2012)

Test system: mice bone marrow polychromatophils
Settings: positive control
[1] = 20 mg/kg intraperitoneally in male mice

Text: The Study purpose is to reveal and quantitatively assess the cytogenetic activity (mutagenicity) of the pharmacologic drugs in the mammalian bone marrow polychromatophils. The method's base is the micronuclei cells microscopic registration.
The experimental used the male and female F1(CBAx C57BI6/J) hybrid mice, two-month age, 18 to 20 grams body weight. Every group included 6 animals. The animals were kept under the 12-hour light regime, with freely available water and food. The single and five fold administration protein-polypeptide complex mutagenicity assessment animal experiments were in compliance with the official protocols. Three experimental series with relevant controls were performed: therapeutic dosage: males, single administration; subtoxic dose: males, single administration; and therapeutic dosage: males and females, five fold administration.
The protein-polypeptide complex mutagenicity assessment dose was defined on the basis of the maximum recommended daily therapeutic dose (TD) for human. The 2 ml at 0.1 mg/ml concentration IV administration is recommended. The therapeutic dose for human, including infant, may be 0.05 mg/kg/day. To calculate the mice experimental dose, the conversion factor is recommended to take into account the human and murine body surface area to body mass ratio. In our study it was 8.33.
For the subtoxic dose the maximum possible experimental one was used, 10 mg/kg, as the substance concentration was 0.1 mg/ml; the conventional total substance administered to mice is 0.1 ml per 10 g body weight.
Seven groups of animals, four experimental and three control ones, were formed. […]
The bone marrow cells preparation for the micronuclei account were made in conventional manner, in accordance with the "Micronuclear Test Environmental Factors Mutagenicity Assessment in Mammalia Organs Cells" Guidelines. […] 2000 polychromatophils per animal were then analyzed with coded preparations. At the 500 erythrocytes count the polychromatophil to normochromatic erythrocytes ratio was determined. […]

O=P1(N(CCCl)CCCl)NCCCO1 (stereo not drawn) [cyclophosphamide]
higher micronuclei cells vs. control [1]: 19.6 fold | micronuclei cells [1]: 62.1 ‰ | polychromatophil to normochromatic erythrocytes ratio (20 mg/kg intraperitoneally, P < 0.005 vs control): shift to the latter ones
